Experimental data published in PubChem BioAssay (NCI).
Values joined by “and” are separate entries in the source; they are usually repeats but may differ in a detail not shown here. Equal values may be shown once.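 Cultured in 96-well plates, cells were exposed to test compound for 48 hours across five concentrations. GI50 is the concentration that inhibits growth by half. Definition used: TGI = concentration required for complete inhibition of growth.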

Experiments:
Experiment in all cases: NCI-60 cell line screen, 48 h
[1] = system: CCRF-CEM leukemia
[2] = system: HL-60(TB) leukemia
[3] = system: HOP-62 NSCLC
[4] = system: HS 578T breast
[5] = system: HT29 colon
[6] = system: MOLT-4 leukemia
[7] = system: NCI-H460 lung
[8] = system: RPMI-8226 leukemia
[9] = system: RXF 393 renal
[10] = system: SF-539 CNS

| Compound | TGI [1] | TGI [2] | TGI [3] | TGI [4] | TGI [5] | TGI [6] | TGI [7] | TGI [8] | TGI [9] | TGI [10] | GI50 [3] | GI50 [4] | GI50 [9] | GI50 [10] | GI50 [1] | GI50 [2] | GI50 [5] | GI50 [6] | GI50 [7] | GI50 [8] |
| --- | --- | --- | --- | --- | --- | --- | --- | --- | --- | --- | --- | --- | --- | --- | --- | --- | --- | --- | --- | --- |
| O=C(O)Cc1ccc(N=Nc2c(O)c(C(=O)O)cc3ccccc23)cc1 | > 100 µM | > 100 µM | > 100 µM | > 100 µM | > 100 µM | > 100 µM | > 100 µM | > 100 µM | > 100 µM | > 100 µM | – | – | – | – | – | – | – | – | – | – |
| O=C1CC(CC(OCc2ccccc2)C(OCc2ccccc2)C(COCc2ccccc2)OCc2ccccc2)CC(=O)N1 (centres undefined) | > 100 µM | > 100 µM and 25.4 µM | > 100 µM and 73.1 µM | > 100 µM and 33.9 µM | 18 µM | > 100 µM and 35.3 µM | > 100 µM and 97.7 µM | > 100 µM and 32.8 µM | > 100 µM and 15 µM | > 100 µM and 35.5 µM | > 100 µM and 26.8 µM | > 100 µM and 16.5 µM | 24.5 µM and 2.72 µM | > 100 µM and 16.8 µM | – | – | – | – | – | – |
| Cn1c(=O)c(Oc2ccc(F)cc2F)cc2cnc(NC3CCOCC3)nc21 | > 25 µM | > 25 µM | > 25 µM | > 25 µM | > 25 µM | > 25 µM | > 25 µM | > 25 µM | > 25 µM | > 25 µM | > 25 µM | > 14.3 µM | 24.3 µM | > 25 µM | > 25 µM | > 25 µM | > 25 µM | > 25 µM | > 25 µM | > 21.1 µM |
| CC1Cc2ccccc2N1C(=O)Cc1nc(N2CCOCC2)cc(=O)[nH]1 (centres undefined) | > 100 µM | > 100 µM | > 100 µM | 33.7 µM and 49.8 µM | > 100 µM | > 100 µM | > 100 µM | > 100 µM | 8.17 µM and 16.2 µM | > 100 µM | 53.8 µM and 59.9 µM | 1.75 µM and 4.13 µM | 0.277 µM and 1.4 µM | 8.79 µM and 22.4 µM | 20.7 µM and 46.7 µM | 20.7 µM and 25.5 µM | 8.25 µM and 34.5 µM | 15.8 µM and 27.5 µM | 17.2 µM and 32 µM | 22.9 µM and > 58.3 µM |
| N#Cc1c(N/N=C\c2ccc(Cl)cc2)nc(N)nc1N1CCOCC1 | 78.9 µM | 27.2 µM | > 100 µM | > 100 µM | > 100 µM | 34.4 µM | > 100 µM | 44.3 µM | > 100 µM | > 100 µM | 86.6 µM | 41.1 µM | 15 µM | 75.1 µM | 25.8 µM | 9.84 µM | 26.7 µM | 13.6 µM | 87.7 µM | 16.4 µM |
| O=[N+]([O-])c1oc2ccc3ccccc3c2c1CCO | 39.9 µM | 13 µM | > 67.1 µM | 27.7 µM | 25.7 µM | > 100 µM | 0.819 µM | 22.2 µM | 3.71 µM | 13.4 µM | – | – | – | – | – | – | – | – | – | – |
| COc1ccc(OC)c(/C=C/c2ccnc3ccccc23)c1 | 5.91 µM | 0.977 µM | 18 µM | 5.72 µM | 2.35 µM | 16.2 µM | 12.3 µM | 26.3 µM | 2.72 µM | 0.671 µM | – | – | – | – | – | – | – | – | – | – |
| NC(N)=Nc1ccc(/C=C2\C=Cc3ccccc32)cc1 | 4.9 µM | 5.87 µM | 6.23 µM | 28.6 µM | 4.11 µM | 5.22 µM | 4.51 µM | 14.4 µM | 5.52 µM | 9.66 µM | 2.4 µM | 5.38 µM | 2.14 µM | 3.66 µM | 2.09 µM | 2.67 µM | 2.05 µM | 2.41 µM | 2.01 µM | 3.18 µM |
